These results are taken from patent US11613515B2, “Neuro-attenuating ketamine and norketamine compounds, derivatives thereof, and methods” (Amorsa Therapeutics, Inc., priority 2014, dated 2023).

Each structure is given as a SMILES string. Where a name gives a salt, the structure may show the parent alone.

The test system of series [1] is NMDA receptor. In words: Patch clamp electrophysiological functional response, NMDA receptor inhibition. The following applies: cultural hippocampal rat neurons. It is filed as cell-based. A general note: The patch-clamp technique gives a direct electrical read-out from membranes.
The conditions of series [2]: estimated, background; cited from earlier work.
The conditions of series [3]: fraction of ketamine activity; cited from earlier work.
Series [4] is described as follows: Metabolic stability in rat liver microsomes. The conditions noted are these: NADPH regenerating system, 0 to 60 min. On the technique in general: Liver microsomes are a subcellular fraction often used to study metabolism.
A short description of series [5]: Pharmacokinetics of deuterated norketamines in rats (tail vein injection). The following applies: 0.8 mg/kg, injection into the tail vein.
Procedure: Pharmacokinetics of the deuterated norketamines is studied in rats. […] The terminal half-lives are calculated by fitting the data points using a WinNonLin software package.
The conditions of series [6]: cited from earlier work.

By IC50 is commonly meant the point on the concentration scale where inhibition reaches its midpoint. A low value points to higher potency. Compound `CNC1(c2ccccc2Cl)CCCCC1=O` (racemic) [ketamine, (R,S)-2-(2-chlorophenyl)-2-(methylamino) cyclohexanone] yielded an IC50 in series [1] of 2.2 µM. The elimination half-life in series [2] was 2 to 3 h.

For `NC1(c2ccccc2Cl)CCCCC1=O` (racemic) [norketamine, (R,S)-2-(2-chlorophenyl)-2-(amino) cyclohexanone], the “activity as compared with ketamine” value in series [3] is “roughly one third”. Besides, the IC50 in series [1] stood at 14.7 µM.

With `[2H]C1([2H])CCCC(N)(c2ccccc2Cl)C1=O` (centres unmarked) [compound 11], the “increase in half-life compared to non-deuterated norketamine” value in series [4] is recorded as “about 80%”. Moreover, in series [5], the “increase of terminal half-life vs norketamine” value is around 40%. In series [1], the IC50 was 25.9 µM.

`CNC1(c2ccccc2Cl)CCCCC1=O` (centres unmarked) [ketamine hydrochloride]: the solubility in water entry in series [6] is listed as “about 200 mg/ml”.
